Data published in publication PMC6151383 (Molecules : A Journal of Synthetic Chemistry and Natural …, 2017).
Values after ≈ are worked out from the molar mass of the structure shown. Read-outs that look alike come from different tables or passages of the source.

Tests used:
[1] = tested on: Trichosporon asahii 1188; test: Antifungal microdilution broth MIC, T. asahii; assay type: cell-based
[2] = tested on: Trichophyton interdigitale 445; test: Antifungal microdilution broth MIC, T. interdigitale; assay type: cell-based
[3] = tested on: Mycobacterium avium 330/88; test: In vitro antimycobacterial MIC, M. avium; assay type: cell-based
[4] = tested on: Mycobacterium kansasii 235/80; test: In vitro antimycobacterial MIC, M. kansasii 235/80; assay type: cell-based
[5] = tested on: Staphylococcus epidermidis H 6966/08; test: Antibacterial microdilution broth MIC, S. epidermidis; assay type: cell-based; details: Staphylococcus epidermidis
[6] = tested on: Klebsiella pneumoniae D 11750/08
[7] = tested on: Mycobacterium tuberculosis 331/88 (H37Rv); test: In vitro antimycobacterial MIC, M. tuberculosis; assay type: cell-based
[8] = tested on: Candida albicans ATCC 44859; test: Antifungal microdilution broth MIC, C. albicans; assay type: cell-based
[9] = tested on: Candida krusei E28; test: Antifungal microdilution broth MIC, C. krusei; assay type: cell-based; details: Pichia kudriavzevii, E28; 48 h incubation; read-out: MIC CK 48 h
[10] = tested on: Escherichia coli CCM 4517; test: Antibacterial microdilution broth MIC, E. coli; assay type: cell-based; details: Escherichia coli, CCM4517; 48 h incubation; read-out: MIC EC 48 h
[11] = tested on: Enterococcus faecalis J 14365/08; test: Antibacterial microdilution broth MIC, E. faecalis; assay type: cell-based; details: Enterococcus faecalis, J14365/08; 48 h incubation; read-out: MIC EF 48 h
[12] = tested on: Staphylococcus aureus CCM 4516/08; test: Antibacterial microdilution broth MIC, S. aureus; assay type: cell-based; details: Staphylococcus aureus, CCM4516; 48 h incubation; read-out: MIC SA 48 h
[13] = tested on: ESBL-positive Klebsiella pneumoniae J 14368/08
[14] = tested on: Lichtheimia corymbifera 272; test: Antifungal microdilution broth MIC, L. corymbifera; assay type: cell-based; details: Lichtheimia corymbifera, 272; 48 h incubation; read-out: MIC LC 48 h
[15] = tested on: Pseudomonas aeruginosa CCM 1961; test: Antibacterial microdilution broth MIC, P. aeruginosa; assay type: cell-based; details: Pseudomonas aeruginosa, CCM1961; 48 h incubation; read-out: MIC PA 48 h
[16] = tested on: Aspergillus fumigatus 231; test: Antifungal microdilution broth MIC, A. fumigatus; assay type: cell-based; details: Aspergillus fumigatus, 231; 48 h incubation; read-out: MIC AF 48 h
[17] = tested on: Candida glabrata 20/I; test: Antifungal microdilution broth MIC, C. glabrata; assay type: cell-based; details: Nakaseomyces glabratus
[18] = tested on: M. kansasii 6509/96; test: In vitro antimycobacterial MIC, M. kansasii clinical isolate; assay type: cell-based; details: Mycobacterium kansasii
[19] = tested on: Candida tropicalis 156; test: Antifungal microdilution broth MIC, C. tropicalis; assay type: cell-based; details: Candida tropicalis, 156; 48 h incubation; read-out: MIC CT 48 h
[20] = Trichophyton interdigitale, 445, 72 h, read-out: MIC TI 72 h
[21] = Trichophyton interdigitale, 445, 120 h, read-out: MIC TI 120 h
[22] = 330/88, 336 h, 14 d incubation, read-out: MIC M. avium 330/88 14 d
[23] = 330/88, 504 h, 21 d incubation, read-out: MIC M. avium 330/88 21 d
[24] = 235/80, 168 h, 7 d incubation, read-out: MIC M. kansasii 235/80 7 d
[25] = 235/80, 336 h, 14 d incubation, read-out: MIC M. kansasii 235/80 14 d
[26] = 235/80, 504 h, 21 d incubation, read-out: MIC M. kansasii 235/80 21 d
[27] = H6966/08, 48 h incubation, read-out: MIC SE 48 h
[28] = 336 h, 14 d incubation, read-out: MIC Mtb. 331/88 14 d
[29] = 504 h, 21 d incubation, read-out: MIC Mtb. 331/88 21 d
[30] = 6509/96, 168 h, 7 d incubation, read-out: MIC M. kansasii 6509/96 7 d
[31] = 6509/96, 336 h, 14 d incubation, read-out: MIC M. kansasii 6509/96 14 d
[32] = 6509/96, 504 h, 21 d incubation, read-out: MIC M. kansasii 6509/96 21 d
[33] = Trichosporon asahii, 1188, 48 h incubation, read-out: MIC TA 48 h
[34] = ATCC44859, 48 h incubation, read-out: MIC CA 48 h
[35] = 48 h incubation, read-out: MIC CG 48 h

SMILES	MIC [3, 22] [µM]	MIC [3, 23] [µM]	MIC [4, 24] [µM]	MIC [4, 25] [µM]	MIC [4, 26] [µM]	MIC KP 24 h [6] [µM]	MIC KP 48 h [6] [µM]	MIC [7, 28] [µM]	MIC [7, 29] [µM]	MIC [9] [µM]	MIC [10] [µM]	MIC [11] [µM]	MIC [12] [µM]	MIC KP-E 24 h [13] [µM]	MIC KP-E 48 h [13] [µM]	MIC [14] [µM]	MIC [15] [µM]	MIC [16] [µM]	MIC [18, 30] [µM]	MIC [18, 31] [µM]	other results
O=S(=O)(Nc1ncccn1)c1ccc(N=Cc2cc(Br)ccc2O)cc1 [Compound 2d, 4-[(5-Bromo-2-hydroxybenzylidene)amino]-N-(pyrimidin-2-yl)benzenesulfonamide]	125 (≈ 54.2 µg/mL)	125 (≈ 54.2 µg/mL)	32 (≈ 13.9 µg/mL)	62.5 (≈ 27.1 µg/mL)	62.5 (≈ 27.1 µg/mL)	500 (≈ 217 µg/mL)	500 (≈ 217 µg/mL)	16 (≈ 6.93 µg/mL)	32 (≈ 13.9 µg/mL)	250 (≈ 108 µg/mL)	500 (≈ 217 µg/mL)	> 500	500 (≈ 217 µg/mL)	500 (≈ 217 µg/mL)	500 (≈ 217 µg/mL)	> 500	500 (≈ 217 µg/mL)	250 (≈ 108 µg/mL)	32 (≈ 13.9 µg/mL)	32 (≈ 13.9 µg/mL)	MIC ([1]; Trichosporon asahii, 1188, 24 h, read-out: MIC TA 24 h): 62.5 µM (≈ 27.1 µg/mL); MIC ([1]; Trichosporon asahii, 1188, 48 h, read-out: MIC TA 48 h): 62.5 µM (≈ 27.1 µg/mL); MIC [2, 20]: 62.5 µM (≈ 27.1 µg/mL); MIC [2, 21]: 62.5 µM (≈ 27.1 µg/mL); MIC [5, 27]: 250 µM (≈ 108 µg/mL); MIC ([8]; ATCC44859, 24 h, read-out: MIC CA 24 h): 125 µM (≈ 54.2 µg/mL); MIC ([8]; ATCC44859, 48 h, read-out: MIC CA 48 h): 125 µM (≈ 54.2 µg/mL); MIC ([17]; 24 h, read-out: MIC CG 24 h): 62.5 µM (≈ 27.1 µg/mL); MIC ([17]; 48 h, read-out: MIC CG 48 h): 62.5 µM (≈ 27.1 µg/mL); MIC [18, 32]: 62.5 µM (≈ 27.1 µg/mL); MIC [19]: 250 µM (≈ 108 µg/mL)
COc1ccc(O)c(C=Nc2ccc(S(=O)(=O)Nc3ncccn3)cc2)c1 [Compound 2h, 4-[(2-Hydroxy-5-methoxybenzylidene)amino]-N-(pyrimidin-2-yl)benzenesulfonamide]	125 (≈ 48.1 µg/mL)	125 (≈ 48.1 µg/mL)	16 (≈ 6.15 µg/mL)	32 (≈ 12.3 µg/mL)	62.5 (≈ 24 µg/mL)	>500	>500	32 (≈ 12.3 µg/mL)	62.5 (≈ 24 µg/mL)	> 500	> 500	> 500	500 (≈ 192 µg/mL)	>500	>500	> 500	500 (≈ 192 µg/mL)	> 500	16 (≈ 6.15 µg/mL)	16 (≈ 6.15 µg/mL)	MIC [1, 33]: 500 µM (≈ 192 µg/mL); MIC [2, 20]: 62.5 µM (≈ 24 µg/mL); MIC [2, 21]: 62.5 µM (≈ 24 µg/mL); MIC ([2]; Trichophyton interdigitale, 445, read-out: MIC for T. interdigitale): 62.5 µM (≈ 24 µg/mL); MIC ([5]; H6966/08, 24 h, read-out: MIC SE 24 h): 62.5 µM (≈ 24 µg/mL); MIC ([5]; H6966/08, 48 h, read-out: MIC SE 48 h): 62.5 µM (≈ 24 µg/mL); MIC [8, 34]: 500 µM (≈ 192 µg/mL); MIC [17, 35]: 500 µM (≈ 192 µg/mL); MIC [18, 32]: 32 µM (≈ 12.3 µg/mL); MIC [19]: 500 µM (≈ 192 µg/mL)
O=[N+]([O-])c1ccc(O)c(C=Nc2ccc(S(=O)(=O)Nc3ncccn3)cc2)c1 [Compound 2f, 4-[(2-Hydroxy-5-nitrobenzylidene)amino]-N-(pyrimidin-2-yl)benzenesulfonamide]	500 (≈ 200 µg/mL)	1000 (≈ 399 µg/mL)	125 (≈ 49.9 µg/mL)	250 (≈ 99.8 µg/mL)	500 (≈ 200 µg/mL)	>500	>500	250 (≈ 99.8 µg/mL)	250 (≈ 99.8 µg/mL)	> 500	250 (≈ 99.8 µg/mL)	500 (≈ 200 µg/mL)	250 (≈ 99.8 µg/mL)	500 (≈ 200 µg/mL)	500 (≈ 200 µg/mL)	500 (≈ 200 µg/mL)	500 (≈ 200 µg/mL)	> 500	125 (≈ 49.9 µg/mL)	250 (≈ 99.8 µg/mL)	MIC [1, 33]: > 500 µM; MIC ([2]; Trichophyton interdigitale, 445, 72 h incubation, read-out: MIC TI 72 h): 62.5 µM (≈ 25 µg/mL); MIC ([2]; Trichophyton interdigitale, 445, 120 h incubation, read-out: MIC TI 120 h): 62.5 µM (≈ 25 µg/mL); MIC ([2]; Trichophyton interdigitale, 445, incubation time not given, read-out: MIC for T. interdigitale): 62.5 µM (≈ 25 µg/mL); MIC [5, 27]: 500 µM (≈ 200 µg/mL); MIC [8, 34]: 500 µM (≈ 200 µg/mL); MIC [17, 35]: 250 µM (≈ 99.8 µg/mL); MIC [18, 32]: 250 µM (≈ 99.8 µg/mL); MIC [19]: > 500 µM
